Measured values reported in PubChem BioAssay AID489035 (Sanford-Burnham Center for Chemical Genomics, 2010).
Calls of active or inactive are those of the source. No rule for the calls is given here.

system: Jurkat NF-kB reporter, TCR-induced, luciferase luminescence; experiment: inhibitors of TCR-driven NF-kB activation, dose response, Jurkat cells, luminescence (AID 489035)

SMILES	IC50
CC(C)c1oc(=O)cc2c1[C@@H](O)[C@H]1OC(=O)[C@@]3(C)C[C@@H](O)[C@@H](O)[C@@]2(C)C13 (stereo not given in full)	1.08 µM
COc1ccc(OC)c2c1C(=O)C(Cl)=C(Cl)C2=O	1.65 µM
Cc1ccc(C[n+]2c(-c3ccc(C)cc3)cc(-c3ccc(C)cc3)cc2-c2ccc(C)cc2)cc1	2.35 µM
Cc1ccc(C(=O)Nc2cccc(C(=O)O)c2)cc1	3.03 µM
CCOc1ccc(S(=O)(=O)NCc2ccccn2)cc1NC(=O)c1ccccc1	> 80 µM (inactive)
CCCCN=C[C@]12CCC(O)CC1(O)CCC1[C@@H]2CC[C@]2(C)[C@H](C3C=CC(=O)O3)CCC12O (stereo not given in full)	> 80 µM (inactive)
Cn1cc(C(=O)N/N=C/c2c(O)ccc3ccccc23)ccc1=O	1.89 µM
CCN(CC)S(=O)(=O)c1cc(NC(=O)CNc2cccc(S(=O)(=O)N3CCCC3)c2)ccc1C	> 80 µM (inactive)
Cc1noc(C)c1CSc1nc2ccccc2c(=O)n1-c1ccccc1	30.8 µM (inactive)
CC(=O)Nc1ccc(S(=O)(=O)N2CCCc3ccccc32)cc1	> 80 µM (inactive)
C[C@@H]1C=CC(=O)O[C@@H]1c1ccc(Cl)cc1	0.38 µM
Cc1ccc(-c2cc(C(F)F)n3ncc(C(=O)N4CCc5ccccc54)c3n2)cc1	> 80 µM (inactive)
CCN(CC)S(=O)(=O)c1ccc(NC(=O)c2ccc(CN3CCOCC3)cc2)cc1	> 80 µM (inactive)
COc1ccc(CNS(=O)(=O)c2cc(-c3cc(C)no3)ccc2C(C)C)cc1	64.6 µM (inactive)
CCOCCCNC(=O)c1cc2c(=O)n3cccc(C)c3nc2n1C	> 80 µM (inactive)
CSC1=NC(C(Cl)(Cl)Cl)N=C(c2ccc(C)cc2)N1 (stereo not given)	> 80 µM (inactive)
Cc1ccc(Nc2nc(-c3c(C)nc4ccccn34)cs2)cc1	24.6 µM (inactive)
CCOc1ccccc1N1CC(O)=C(c2nc3ccccc3s2)C1=N	26.7 µM (inactive)
CCCCC(=O)NC(c1ccc(Cl)cc1)c1ccc2cccnc2c1O (stereo not given)	8.39 µM
C[C@]12CC[C@@H]3c4cc(O)c(O)cc4CC[C@H]3[C@@H]1CC[C@@H]2O	4.76 µM

SMILES	IC50
CCCOc1ccccc1C1CC(=O)Nc2cc3c(cc21)OCO3 (stereo not given)	> 80 µM (inactive)
COc1ccc(NC(=O)C(=O)NCC2CCCN2S(=O)(=O)c2ccc(C)cc2)cc1 (stereo not given)	> 80 µM (inactive)
CCCCCCCn1c2c(c(=N)c3ccccc31)CCC2	12.3 µM
CC1=CC(C)(C)N(S(=O)(=O)c2ccc(C)cc2)c2cc(C)ccc21	6.77 µM
O=C(Nc1ccc(S(=O)(=O)Nc2ccc(F)cc2)cc1)c1ccc(CN2CCOCC2)cc1	40.8 µM (inactive)
O=C1CC(c2cc(F)ccc2F)c2cc3c(cc2N1)CCC3 (stereo not given)	> 80 µM (inactive)
O=C(NCc1cccs1)C1CCN(c2ccc(S(=O)(=O)N3CCOCC3)cc2Cl)CC1	25.6 µM (inactive)
CC[C@@]1(O)C(=O)OCc2c1cc1n(c2=O)Cc2cc3c(N)cccc3nc2-1	< 0.16 µM
CSc1ccc(COC(=O)c2cc([N+](=O)[O-])ccc2N2CCOCC2)cc1	> 80 µM (inactive)
CC(C)(C)c1csc(Sc2ccc([N+](=O)[O-])cn2)n1	3.24 µM
COc1ccccc1-c1nnc2sc(-c3ccc(N(C)C)cc3)nn12	> 80 µM (inactive)
CCOC(=O)C1CCN(S(=O)(=O)c2c(Cl)ccc3nonc23)CC1	1.88 µM
CC(Nc1ncnc2ccccc12)c1ccccc1 (stereo not given)	> 80 µM (inactive)
O=C(/C=C/c1cccc([N+](=O)[O-])c1)n1cnc2ccccc21	5.79 µM
COc1ccc(Nc2nc3cc(C)ccc3cc2C#N)c(OC)c1	> 80 µM (inactive)
COc1cccc(/C=N/Nc2ncnc3c2ncn3Cc2ccccc2)c1O	> 80 µM (inactive)
CCOc1ccccc1NC(=O)Cn1nnc(C(=O)NCc2cccs2)c1N	> 80 µM (inactive)
CN1/C(=C\C(=O)C[n+]2ccc3ccccc3c2)C(C)(C)c2ccccc21	38 µM (inactive)
O=C(Nc1ccc(S(=O)(=O)N2CCCCC2)cc1)c1ccc(CN2CCOCC2)cc1	16.6 µM
Cc1csc2sc(-c3ccnc(SCC(=O)NCc4ccccc4)n3)c(C)c12	17 µM
